Test system: PAI-1 deficient plasma
Assay: CLSM thrombelastography with tPA, PAI-1 deficient plasma
Type: biochemical, human
Settings: 100 μM CORM-2, tPA 100 IU/mL, median, n=8
Procedure: Pooled normal plasma (George King Bio-Medical, Overland Park, Kans.) anticoagulated with sodium citrate was utilized for experimentation. […] Factor XIII (FXIII) deficient plasma anticoagulated with sodium citrate was also obtained from the same vendor.
Plasma Sample Composition. The final volume for all subsequently described plasma sample mixtures was 359.4 μL. Sample composition consisted of 316 μL of plasma; 10 μL of tissue factor (0.1% final concentration in 0.9% NaCl; Diagnostica Stago, Asnieres, France), 3.6 μL of dimethyl sulfoxide (DMSO) or DMSO with CORM-2 (Sigma-Aldrich, St. Louis, Mo.) or DMSO with inactivated CORM-2 (iCORM-2), 10 μL of tissue-type plasminogen activator (tPA, 580 U/μg, Genentech, Inc., San Francisco, Calif.) diluted with 10 mM potassium phosphate buffer (pH 7.4) for a final activity of 100 IU/mL, and 20 μL of 200 mM CaCl2. […] This concentration of CORM-2 was chosen because the concentration of CO released would be expected to be in the mid to lower ranges used in previously reported ex vivo, in vitro, and cell-based experiments (Motterlini et al. 2002; Megias et al. 2007; Chlopicki et al. 2006; Dong et al. 2008). […] (Motterlini et al. 2005). While CORM-2 decays slowly in DMSO, DMSO was added to the dry compound just prior to placement into the plasma mixture. The specific series of experiments are subsequently presented.
Assessment of the Effects of CORM-2 on CLSM Parameters in FXIII, PAI-1, TAFI and α2-antiplasmin Deficient Plasmas. These experiments were performed to elucidate the roles played by antifibrinolytic enzymes during CORM-2 mediated modulation of fibrinolysis. Samples of the various deficient plasmas were exposed to 0 or 100 μM of CORM-2 (n=8 per condition). Samples underwent CLSM analyses as subsequently described.
Clot Lifespan Model Analyses. As described in Example 1, plasma sample mixtures were placed in a disposable cup in a computer-controlled THROMBELASTOGRAPH® hemostasis system (Model 5000, Haemoscope Corp., Niles, Ill.), with addition of CaCl2 as the last step to initiate clotting. Data were collected until clot lysis time occurred. […] As this model involves complete fibrinolysis, TTG is equivalent to ACL, so ACL was not presented as it provides no additional information.
Statistical Analyses. Data are presented as median (1st, 3rd quartiles). […] Nonlinear and linear analyses and curve fitting of the various CORM-2 concentrations effects on CLSM variables were performed with commercially available software (SigmaPlot 11.0, Systat Software, Inc., San Jose, Calif.). Analyses of the effects of CORM-2 and iCORM-2 on CLSM variables in normal plasma were conducted with Kruskal-Wallis one way analysis of variance on ranks, whereas Mann-Whitney rank sum tests were used to assess the effects of CORM-2 on CLSM variables in the various immunodepleted/congenitally deficient plasma types (SigmaStat 3.1, Systat Software, Inc., San Jose, Calif.). Graphical representation of the data was generated with commercially available software (SigmaPlot 11.0, Systat Software, Inc., San Jose, Calif.; CorelDRAW 12.0, Corel Corporation, Ottawa, Ontario, Canada; Origin 7.5, OriginLab Corp., Northampton, Mass.). A P value of <0.05 was considered significant.

[C-]#[O+].[C-]#[O+].[C-]#[O+].[C-]#[O+].[C-]#[O+].[C-]#[O+].[Cl][Ru][Cl].[Cl][Ru][Cl] [CORM-2, tricarbonyldichlororuthenium (II) dimer]
CGT (clot growth time): 500 s | CLS (clot lifespan): 1565 s | CLT (clot lysis time): 1070 s | MRL (maximum rate of lysis): −2.2 -dynes/cm^2/sec | MRTG (maximum rate of thrombus generation): 9.4 dynes/cm^2/sec | TMRL (time to maximum rate of lysis): 750 s | TMRTG (time to maximum rate of thrombus generation): 160 s | TTG (total thrombus generation): 228 dynes/cm^2

Source: patent publication US8697747B2, “Enhancing coagulation or reducing fibrinolysis” (THe UAB Research Foundation, priority 2009, dated 2014)
